Measured values: the supplement of paper PMC10307832

Tests used:
Assay in all cases: relative viability (nuclei count vs DMSO), 5 days (fraction); higher = more cells survive
Motesanib + Foretinib = compound: CC1(C)CNc2cc(NC(=O)c3cccnc3NCc3ccncc3)ccc21 [Motesanib] + COc1cc2c(Oc3ccc(NC(=O)C4(C(=O)Nc5ccc(F)cc5)CC4)cc3F)ccnc2cc1OCCCN1CCOCC1 [Foretinib] (partner 0.25 µM)
Summary of the method: (§1)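 Medians of duplicate plates are given as relative viability. That measure is the nuclei count in treated wells divided by the count in vehicle wells. Counts were taken on 4× images of lung cancer cell lines in 1536-well plates, 5 days after pin-tool dosing the day after seeding with one drug alone or a fixed anchor-drug dose plus five library-drug doses (not always all listed) in √10 steps.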

[1] = compound: C[C@@]1(C(=O)Nc2ccc(F)nc2)CCCN1c1nc(Nc2cc(C3CC3)n[nH]2)c2cccn2n1 + COc1cccc2cc(-c3nc([C@H]4CC[C@H](C(=O)O)CC4)n4ncnc(N)c34)[nH]c12 [OSI-027] (partner 0.5 µM)
Summary of the method: as §1

Motesanib + Lapatinib = compound: CC1(C)CNc2cc(NC(=O)c3cccnc3NCc3ccncc3)ccc21 [Motesanib] + CS(=O)(=O)CCNCc1ccc(-c2ccc3ncnc(Nc4ccc(OCc5cccc(F)c5)c(Cl)c4)c3c2)o1 [Lapatinib] (partner 2 µM)
Summary of the method: as §1

[2] = compound: C[C@@]1(C(=O)Nc2ccc(F)nc2)CCCN1c1nc(Nc2cc(C3CC3)n[nH]2)c2cccn2n1 + NC(=O)Nc1cc(-c2cccc(F)c2)sc1C(=O)N[C@H]1CCCNC1 [AZD7762] (partner 0.2 µM)
Summary of the method: as §1

| Cell Line | relative viability (Motesanib + Foretinib; first compound 0.01 µM) | relative viability (Motesanib + Foretinib; first compound 0.03162 µM) | relative viability (Motesanib + Foretinib; first compound 0.1 µM) | relative viability (Motesanib + Foretinib; first compound 0.3162 µM) | relative viability (Motesanib + Foretinib; first compound 1 µM) | relative viability ([1]; first compound 0.04 µM) | relative viability ([1]; first compound 0.1265 µM) | relative viability ([1]; first compound 0.4 µM) | relative viability ([1]; first compound 1.265 µM) | relative viability (Motesanib + Lapatinib; first compound 0.01 µM) | relative viability (Motesanib + Lapatinib; first compound 0.03162 µM) | relative viability (Motesanib + Lapatinib; first compound 0.1 µM) | relative viability (Motesanib + Lapatinib; first compound 0.3162 µM) | relative viability (Motesanib + Lapatinib; first compound 1 µM) | relative viability ([2]; first compound 0.04 µM) | relative viability ([2]; first compound 0.1265 µM) | relative viability ([2]; first compound 0.4 µM) | relative viability ([2]; first compound 1.265 µM) |
| --- | --- | --- | --- | --- | --- | --- | --- | --- | --- | --- | --- | --- | --- | --- | --- | --- | --- | --- |
| LCLC-97TM1 | 0.948 | 0.968 | 0.976 | 0.919 | 0.979 | 0.284 | 0.111 | 0.122 | 0.112 | 1.04 | 0.96 | 0.688 | 1.09 | 0.967 | 0.284 | 0.234 | 0.134 | 0.128 |
| LK-2 | 1.21 | 1.08 | – | 1.27 | 1.31 | – | 0.163 | 0.153 | 0.178 | 0.784 | 1.19 | 0.78 | 1.04 | 0.901 | 0.179 | 0.203 | – | 0.179 |
| LOU-NH91 | 0.97 | 0.929 | 0.91 | 0.948 | 1.02 | 0.65 | 0.665 | 0.59 | 0.563 | 0.724 | 0.771 | 0.752 | 0.754 | 0.765 | 0.683 | 0.723 | 0.626 | 0.642 |
| LU99A | 0.795 | 0.813 | 0.734 | 0.898 | 0.89 | 0.251 | 0.233 | 0.223 | 0.186 | 1.03 | 1.2 | 0.94 | 1.03 | 0.883 | 0.294 | 0.243 | 0.223 | 0.143 |
| LXF-289 | 1 | 0.952 | 0.924 | 1.03 | 0.987 | 0.633 | 0.463 | 0.407 | 0.353 | 0.893 | 0.867 | 0.909 | 1 | 0.949 | 1.1 | 1.03 | 0.968 | 1.12 |
| NCI-H23 | 0.952 | 0.718 | 0.892 | 1.38 | 0.933 | 0.397 | 0.232 | 0.225 | 0.266 | 1.14 | 0.864 | – | 1.13 | 1.11 | 0.238 | 0.208 | 0.193 | 0.114 |
| NCI-H322M | 1.09 | 0.998 | 0.979 | 0.946 | 1.06 | 0.483 | 0.364 | 0.363 | 0.321 | 0.553 | 0.372 | 0.696 | 0.587 | 0.566 | 0.45 | 0.424 | 0.492 | 0.35 |
| NCI-H358 | 0.599 | 0.712 | 0.67 | 0.807 | 0.629 | 0.415 | 0.179 | 0.15 | 0.138 | 0.489 | 0.472 | 0.424 | 0.555 | 0.463 | 0.389 | 0.392 | 0.171 | 0.282 |
| NCI-H460 | 0.942 | 0.966 | 1 | 1.01 | 1.04 | 0.538 | 0.252 | 0.29 | 0.313 | 0.961 | 0.779 | 0.892 | 0.974 | 0.864 | 0.737 | 0.667 | 0.609 | 0.649 |
| NCI-H596 | 0.817 | 0.818 | 0.98 | 0.656 | 0.806 | 0.63 | 0.557 | 0.555 | 0.793 | 1.08 | 1.04 | 1.06 | 1.16 | 1.18 | 1.1 | 1.07 | 0.94 | 1.19 |
| NCI-H647 | 1.21 | 1.14 | 1.21 | 1.25 | 1.14 | 0.574 | 0.404 | 0.484 | 0.734 | 0.995 | 1 | 1.11 | 1.19 | 1.09 | 0.402 | 0.591 | 0.452 | 0.32 |
| NCI-H650 | 1.05 | – | 1.02 | 0.974 | 1.02 | 0.459 | 0.214 | 0.306 | 0.289 | 0.815 | 0.932 | 0.897 | 1.13 | 0.888 | 1.16 | 0.609 | 0.729 | 0.828 |
| NCI-H727 | 0.707 | 0.98 | 0.854 | 1.09 | 0.883 | 0.373 | 0.273 | 0.383 | 0.351 | 0.821 | 0.902 | 0.858 | 1.13 | 0.787 | 0.573 | 0.386 | 0.443 | 0.345 |
| NCI-H838 | 1.17 | 1.06 | 1.07 | 1.14 | 1.09 | 0.362 | 0.192 | 0.182 | 0.28 | 0.98 | 1.03 | 0.914 | 1.19 | 1.02 | 0.981 | 0.918 | 0.814 | 0.872 |
| NCI-H1355 | 1.02 | 0.96 | 1.02 | 1.01 | 1.03 | 0.272 | 0.236 | 0.21 | 0.251 | 1.07 | 1.01 | 1.04 | 1.09 | 0.962 | 0.694 | 0.579 | 0.539 | 0.598 |
| NCI-H1395 | 0.973 | 0.809 | 1.05 | 1.02 | 0.942 | 0.727 | 0.561 | 0.668 | 0.665 | 0.925 | 1.03 | 1.04 | 1.08 | 0.959 | 0.395 | 0.416 | 0.396 | 0.364 |
| NCI-H1437 | 1.28 | 1.24 | 1.25 | 1.3 | 1.33 | 0.703 | 0.272 | 0.208 | 0.205 | 0.719 | 0.78 | 0.756 | 0.9 | 0.781 | 1 | 1.25 | 0.688 | 0.745 |
| NCI-H1651 | 0.824 | 0.877 | 0.845 | 0.82 | 0.982 | 0.658 | 0.525 | 0.423 | 0.501 | 0.704 | 0.706 | 0.699 | 0.921 | 0.786 | 0.52 | 0.371 | 0.409 | 0.447 |
